Test results reported in patent US10016409B2, “Method for improving interstitial flow” (priority 2012, dated 2018).
Where a name gives a salt, the structure may show the parent alone.

Tests used:
MCI patients [1] = settings: cited from earlier work; for conversion from MCI to Alzheimer: Non-patent Document 3; for effectiveness on MCI patients: clinical trials, Guidelines for Management of Dementia
MCI patients [2] = assay: Clinical record analysis, MMSE change in MCI patients (MMSE 22 to 26) under donepezil hydrochloride oral administration; format: in vivo, human; settings: MCI patients MMSE 22-26
Excerpt: Patients subjected to oral administration of donepezil hydrochloride, having an observation period of one or more years before the MMSE test date, and having first MMSE scores less than or equal to 26 were picked up from a clinical record. Among the patients, patients recorded to have been consecutively administered with cilostazol for 6 months or more in the observation period were classified as a donepezil hydrochloride and cilostazol combined use group (69 cases), and patients recorded to have experienced no cilostazol oral administration were classified as a donepezil hydrochloride single use group (87 cases). Cilostazol was oral-administered at a dosage of 50 to 200 mg/day in the morning and evening, and donepezil hydrochloride was administered at a dosage of 5 mg/day once in a day. Among the patients, patients with MMSE scores greater than or equal to 22 and less than or equal to 26 were extracted as an MCI patient group. Then, 36 cases (16 males and 20 females, average age: 78.4 years old) of the donepezil hydrochloride single use group (hereinafter referred to as a single use group) and 34 cases (15 males and 19 females, average age: 77.2 years old) of the donepezil hydrochloride and cilostazol combined use group (hereinafter referred to as combined use group) were found. The average dosage of cilostazol in the combined use group was 121 mg/day. […] Measurement of MMSE was conducted at least twice in the observation period, and the first and last test results were selected for analysis.

dementia patients = assay: Clinical record analysis, MMSE change in dementia patients (MMSE less than or equal to 21) under donepezil hydrochloride oral administration; format: in vivo, human; settings: dementia patients MMSE less than or equal to 21
Excerpt: Patients subjected to oral administration of donepezil hydrochloride, having an observation period of one or more years before the MMSE test date, and having first MMSE scores less than or equal to 26 were picked up from a clinical record. Among the patients, patients recorded to have been consecutively administered with cilostazol for 6 months or more in the observation period were classified as a donepezil hydrochloride and cilostazol combined use group (69 cases), and patients recorded to have experienced no cilostazol oral administration were classified as a donepezil hydrochloride single use group (87 cases). Cilostazol was oral-administered at a dosage of 50 to 200 mg/day in the morning and evening, and donepezil hydrochloride was administered at a dosage of 5 mg/day once in a day.
As a dementia patient group oral-administered with donepezil hydrochloride, patients with MMSE scores less than or equal to 21 were extracted. Then, the donepezil hydrochloride single use group (the single use group) was 51 cases (17 males and 34 females, average age: 78.2 years old) and the donepezil hydrochloride and cilostazol combined use group (the combined use group) was 35 cases (14 males and 21 females, average age: 79.3 years old). The average dosage of cilostazol in the combined use group was 139 mg/day.

Which “conversion from MCI to Alzheimer” value (MCI patients [1]) does the source give for `COc1cc2c(cc1OC)C(=O)C(CC1CCN(Cc3ccccc3)CC1)C2` (stereo not drawn) [donepezil hydrochloride] here?
The value was “do not affect conversion from MCI to Alzheimer”.

What about the “effectiveness on MCI patients” value (MCI patients [1]) of the same compound?
Its value is “very limited or is not present”.

What about the MMSE change rate (MCI patients [2]; increment or decrement of MMSE score/observation period [year], average±standard error, p=0.022 between groups) of the same compound?
Its MMSE change rate is −2.23±0.69.

What about the “change rate of MMSE item 1 of orientation to time” value (MCI patients [2]; per observation period [year], p=0.003) of the same compound?
Its value is −0.85.

And the “change rate of MMSE item 2 of orientation to location” value (MCI patients [2]; per observation period [year], p=0.017)?
Its value is −0.31.

What about the “change rate of MMSE item 5 of delayed recall” value (MCI patients [2]; per observation period [year], p=0.045) of the same compound?
The value was −0.28.

And the “change rate of MMSE item 5 of delayed recall” value (dementia patients; p=0.37)?
Its value is −0.15.

What about the “change rate of MMSE item 2 of orientation to location” value (dementia patients; p=0.86) of the same compound?
The value was −0.13.

And the “change rate of MMSE item 1 of orientation to time” value (dementia patients; p=0.89)?
Its value is −0.16.

What about the MMSE change rate (dementia patients; per observation period, average±standard error, p=0.72 between groups) of the same compound?
The MMSE change rate was −0.90±037.

For `CCN(C)C(=O)Oc1cccc([C@H](C)N(C)C)c1` [rivastigmine], which “effectiveness on MCI patients” value (MCI patients [1]) is on record?
Its value is “very limited or is not present”.

Which “prophylactic effects (dementia or MCI)” value (MCI patients [1]; guideline p. 116, Other Drugs (2)) does the source give for `CS(=O)(=O)c1ccc(C2=C(c3ccccc3)C(=O)OC2)cc1` [rofecoxib] here?
Its value is “no prophylactic effects”.

For estrogen, which “risk of onset of dementia or MCI” value (MCI patients [1]; RCT, postmenopausal women of 65 years of age or more without dementia) is on record?
The value was “increased the risk of onset of dementia or MCI significantly”.

With vitamin E as the compound, how does the “conversion from MCI to Alzheimer” value (MCI patients [1]) read?
Its value is “do not affect conversion from MCI to Alzheimer”.

And the “dementia prophylactic effect / prophylactic effect against conversion to Alzheimer” value (MCI patients [1]; RCT directed to MCI patients)?
Its value is “neither dementia prophylactic effect nor prophylactic effect against conversion to Alzheimer was obtained”.
